Measurements as given in US20220288075A1, “METHOD AND COMPOSITION FOR TREATING PAIN” (ACADEMIA SINICA, priority 2019, published 2022).

How the values were obtained:
[1] = test system: WT mice; assay: LPC16:0 / lipid injection in wild-type mice, mechanical hypersensitivity by von Frey test; type: in vivo; details: for long-lasting hyperalgesia / priming-like effect after repeated intramuscular injection: two i.m. injections, 4.8 nmol, 10C
[2] = test system: mice with repeated LPC16:0 injection; assay: Repeated LPC16:0 injection model, drug effects by von Frey test; type: in vivo; details: for analgesic effect in repeated LPC16:0 injection model (von Frey): intraperitoneal administration, FIG. 10E
Protocol: (§1) The chronic pain model was based on the repeated acid injection model protocol by Sluka et al.^44, and LPC16:0 was used for pain induction to replace acidic saline injection. Mice received in the left gastrocnemius muscle two intramuscular injections (1 day apart) of 10 μL neutral saline solution (pH 7.4; buffered with HEPES) containing vehicle (0.96% ethanol) or LPC16:0 (4.8 nmol; Avanti Polar Lipids Inc)^30. In the experiment of pharmacological inhibition of ASIC3, APETx2 (50 pmole; Alomone, Israel), a selective ASIC3 antagonist, was co-injected with LPC16:0.
(§2) Animals were placed on an elevated mesh platform, and a 0.2-mN von Frey filament was applied to the plantar surface of both hind paws. A positive response was defined as lifting, shaking, guarding, or licking paws when the stimulus was applied. For each paw, the filament was applied 5 times at 30-sec intervals.
Analgesic drugs: Pregabalin (0.3, 1, 3 or 10 mg/kg bodyweight, i.p.; Toronto Research Chemicals), morphine (0.3, 1, 3 or 10 mg/kg bodyweight, i.p.), diclofenac (1, 3 or 10 mg/kg bodyweight, i.p.; Sigma-Aldrich) or vehicle (0.9% saline) was administered, and the effect of each drug was evaluated by testing 6 mice. Sensory testing was carried out at 30 min and 1, 3 and 24 hours after injection of vehicle or drugs, with the experimenter blinded to the dose of test drugs. […] The 3Rs stand for Replace, Reduce, Refine and represent a responsible approach to animal testing. The goal is to replace animal experiments whenever possible. In addition, the aim is to keep the number of animal experiments as low as possible and to only use the necessary number of animals. Lastly, it is vital to ensure that the distress inflicted upon the animals is as low as possible. Therefore, all the pharmacological studies were conducted on post-RISS day 1 and day 4 (3 days apart, within 1 week after RISS). Mice of post-stress day 1 and day 4 were assigned randomly but equally to each tested dosage for counterbalance. During testing, the experimenter was blind to the individual treatment assignments.
Intrathecal injection was conducted through transcutaneous injection with a 30-gauge needle at the L5-6 dorsal spinal process under anesthesia of isoflurane (1.5%).

[3] = test system: RISS mice; assay: RISS (repeated and intermittent sound stress) model, sensory testing (von Frey, muscle withdrawal threshold, Hargreaves); type: in vivo; details: i.p. injection, post-RISS day 1 and 4; FIG. 1G
Description: Sound stressors were applied as described^14, 43 with modification. Mice were placed (3 per cage) in a 20×30×15 cm bedding cage, which was kept 25 cm below a speaker, inside a 40×50×35 cm sound-insulated box. A speaker emitted pure tones at 5 frequencies (5, 11, 13, 15 and 19 kHz) with random amplitudes varied over time for each frequency (0, 20, 60, 90, and 100 dB sound). Each tone stimulus lasted for 5 or 10 sec in random order, and mice were stimulated continuously without interval. The sound stressors continued for 30 min as a set. In the original SS (sound stress) protocol, a set of 30-min stimuli was given once a day on days 1, 3, and 4 (FIG. 1A)^14. The RISS model intensified the stress protocol by increasing the stimulus frequency: a set of sound stimulus was repeated every 3 hours for 6 times overnight (from 16:00 to 10:00), followed by resting silence for 6 hours (from 10:00 to 16:00). The procedure was repeated on days 1, 3, and 4 as for the SS protocol. The control groups were placed in similar chambers for 4 days without stress exposure. Both groups of mice had access to food and water freely during the stress period. After the stimulus procedure, mice were returned to their original home cages in the animal care facility. In both the SS and RISS protocols, the day after completing the stress stimuli is called P0; the post-stress day 1, P1; and so on. In the experimental design of the […] single-day stimuli of intermittent SS (SISS), the day after SISS is called P′0; the post-stress day 1, P′1; and so on.
as §2
Mice were placed individually in Acrylic cubicles mounted on a glass surface maintained at 30° C. The test was performed after acclimatization. The thermal stimulus of the radiant heat was then applied to the plantar surface of each hind paw. Each mouse was tested in three sequential trials with an interval of 2-3 min. The assay cutoff was set at 30 sec to prevent tissue damage. Paw withdrawal latencies were calculated as the mean of three measures.
Muscle withdrawal thresholds were evaluated as described^46. […]
Analgesic drugs: Pregabalin (0.3, 1, 3 or 10 mg/kg bodyweight, i.p.; Toronto Research Chemicals), morphine (0.3, 1, 3 or 10 mg/kg bodyweight, i.p.), diclofenac (1, 3 or 10 mg/kg bodyweight, i.p.; Sigma-Aldrich) or vehicle (0.9% saline) was administered, and the effect of each drug was evaluated by testing 6 mice. […]

[4] = test system: pERK; assay: pERK expression of L4 DRG neurons after intramuscular LPC16:0 injection; type: in vivo, mice
Protocol: as §1
Immunofluorescence staining. Animals were euthanized with urethane ([…], i.p.) and perfused with 4% paraformaldehyde (PFA) at P0. L4 dorsal root ganglia (DRG) were extracted and immediately post-fixed in 4% PFA for 60 min, and then replaced with 30% sucrose overnight. DRG were embedded in OCT compound and sectioned (12 μm) with a Leica cryostat. […] Images were acquired and quantified under a Carl Zeiss fluorescence microscope with a 10× objective lens. All images from the same experiment were acquired with the same settings, including fluorescence intensity, acquisition time, and image resolution. The immunoreactivity of pERK and the overlap between pERK and neuron markers (SP, CGRP, IB4 or N52) were assessed using Fiji (ImageJ, NIH) software, with the experimenter blinded to treatment and/or genotype. […]

## CCCCCCCCCCCCCCCCCC(=O)OC[C@@H](O)COP(=O)([O-])OCC[N+](C)(C)C [LPC18:0]
[1]; FIG. 3J
  long-lasting hyperalgesia / priming-like effect after repeated intramuscular injection: not observed

## CC(C)C[C@H](CN)CC(=O)O [pregabalin]
[2]
  analgesic effect in repeated LPC16:0 injection model (von Frey): responded
[3]
  analgesic effect on RISS-induced hyperalgesia (mechanical, muscle, thermal): dose-dependently reversed hyperalgesia

## CCCCCCCCCCCCC/C=C/[C@@H](O)[C@H](COP(=O)([O-])OCC[N+](C)(C)C)NC(=O)CCCCCCCCCCCCCCCCC [SM(d18:1/18:0)]
[1]; FIG. 3J
  long-lasting hyperalgesia / priming-like effect after repeated intramuscular injection: not observed

## CCCCCCCCCCCCCCCC(=O)OC[C@@H](O)COP(=O)([O-])OCC[N+](C)(C)C [LPC16:0, lysophosphatidylcholine (LPC) 16:0]
[4]; i.m. injection, FIG. 10A, 10B
  pERK expression in L4 DRG neurons after LPC injection vs vehicle: increased
[1]; 4.8, 1.6 and 0.48 nmol i.m., FIG. 3I
  hyperalgesic responses after intramuscular injection, dose dependence: dose-dependently evoked hyperalgesic responses
[1]; single i.m. injection, FIG. 3J
  hyperalgesia after single intramuscular injection: induced transient bilateral hyperalgesia
[1]; FIG. 3J
  long-lasting hyperalgesia / priming-like effect after repeated intramuscular injection: induced long-lasting hyperalgesic changes
[1]; two intraplantar injections, 4.8 nmole, FIG. 3J right
  hyperalgesia after repeated intraplantar injection: only induced transient hyperalgesia

## N#CC(=C(/N)Sc1ccccc1N)/C(C#N)=C(\N)Sc1ccccc1N [U0126]
[2]; mouse, in vivo
  LPC16:0-induced acute hyperalgesia: prevented
  chronic hyperalgesia induced by the second LPC16:0 injection: impeded the development of chronic hyperalgesia

## APETx2
[2]; APETx2 50 pmole co-injected i.m. with LPC16:0, FIG. 3K left
  chronic hypersensitivity after repeated LPC16:0 injection: significantly reduced
[2]; APETx2 co-injected i.m. with LPC16:0, vs vehicle, FIG. 3K left
  transient (acute) hyperalgesia after LPC16:0 injection: transient hyperalgesia was observed
[4]; APETx2 co-injected with LPC16:0, FIG. 10F, 10G
  LPC16:0 injection-induced pERK expression in DRG neurons: reduced

## O=C(O)Cc1ccccc1Nc1c(Cl)cccc1Cl [diclofenac]
[2]
  analgesic effect in repeated LPC16:0 injection model (von Frey): not
[3]
  analgesic effect on RISS-induced hyperalgesia (mechanical, muscle, thermal): no significant analgesic effects

## CN1CC[C@]23c4c5ccc(O)c4O[C@H]2[C@@H](O)C=C[C@H]3[C@H]1C5 [morphine]
[2]
  analgesic effect in repeated LPC16:0 injection model (von Frey): not
[3]
  analgesic effect on RISS-induced hyperalgesia (mechanical, muscle, thermal): no significant analgesic effects
